These results are taken from patent publication US4797400A, “Piperazine compounds and anti-ulcer composition containing the same” (Kanebo, Ltd., priority 1986, dated 1989).

The subject of data set [1] is ethanol-induced gastric ulcer. Description: Inhibitory effect on ethanol-induced gastric ulcer. It counts as in vivo, male Sprague-Dawley (SD) rats. Conditions: Rattus norvegicus, po, 1 h; p.o.; male SD rats; ethanol (99.5%, 1 ml) orally 30 minutes after test compound; ulcer index after one hour. The method, then: The compounds of this invention have potent activity for promoting the action of the defensive factor. The activity can be evaluated by the defensive action against ulcer induced by ethanol (e.g. inhibitory effect on ethanol-induced gastric ulcer) [cf. Hara, Nobuyuki et al., Pharmacometrics, 29, 557 (1985)]. […] Inhibitory effect on ethanol-induced gastric ulcer: Male Sprague-Dawley (SD) rats (weighing 180-220 g, 8 weeks age, 16 rats per group) were fasted for 24 hours, and to the rats was orally administered the test compound in the form of a solution in distilled water or a suspension in 1% aqueous gum arabic. After 30 minutes, ethanol (99.5%, 1 ml) was orally administered to the rats in the same manner as described by Robert et al. [cf. Gastroenterology, 77, 433 (1979)]. One hour after the administration of ethanol, the rats were sacrificed under ether anesthesia, and the stomach was removed. Into the stomach was poured 1% formalin (12 ml), and then the stomach was immersed in 1% formalin for 15 minutes. The stomach was cut along the greater curvature, and the length (mm) of each ulcer occured on the fundic mucosa was measured with a dissecting microscope. Sum of the length of ulcers in each rat was used as the ulcer index in each rat. In control rats to which no test compound was administered, the ulcer index was determined likewise, and the mean value (mean ulcer index) was calculated. […] A dose-response curve was drawn based on the ratio thus obtained and the dose of test compounds, and therefrom, the 50% effective dose (ED50) was determined.

Data set [2] can be described thus: Acute toxicity. Conditions: mouse, in vivo, po; male ddY mice; death observed for 7 days; Weil's method. The method, then:
To male ddY mice (weighing 18-22 g, 4 weeks age, […] mice per group) fasted overnight was orally administered the test compound in the form of a solution in distilled water or a suspension in 1% aqueous gum arabic. […] From the number of dead mice, LD50 was determined in the same manner as Weil's method.

Data set [3] has as its system indomethacin-induced gastric ulcer. As to the kind of experiment: Inhibitory effect on indomethacin-induced gastric ulcer. It counts as in vivo. Conditions: Rattus norvegicus, po; male SD rats; indomethacin 30 mg/kg s.c.; ulcer index after 5 hours. The method, then: Inhibitory effect on indomethacin-induced gastric ulcer: It was done in the same manner as described by Okabe et al. [cf. Digestive Diseases and Science, 28, 1034 (1983)]. That is, male SD rats (weighing 180-220 g, 8 weeks age, 16 rats per group) were fasted for 24 hours, and to the rats was orally administered the test compound in the form of a solution in distilled water or a suspension in 1% aqueous gum arabic. After 15 minutes, to the rats was subcutaneously administered indomethacin (30 mg/kg) in the form of a solution in 3% aqueous sodium hydrogen carbonate solution. After 5 hours, the rats were sacrificed under ether anesthesia and the stomach was removed. The stomach was treated with formalin and the ulcer index as well as ED50 were determined in the same manner as described in Experiment 1.

For data set [4], the system named is water-immersion stress-induced gastric ulcer. Description: Inhibitory effect on water-immersion stress-induced gastric ulcer. It counts as in vivo. As to conditions: Rattus norvegicus, po; male SD rats; water bath at 23° C., 17 hours. The method, then:
Inhibitory effect on water-immersion stress-induced gastric ulcer: Male SD rats (weighing 190-230 g, 8 weeks age, 16 rats per group) were fasted for 24 hours, and to the rats was orally administered the test compound in the form of a solution in distilled water or a suspension in 1% aqueous gum arabic. After 15 minutes, the rats were immersed vertically to the height of the xiphoid of the rats in water bath at 23° C. within a stress cage in the same manner as described by Takagi et al. [cf. Japanese Journal of Pharmacology, 18, 9 (1968)]. After 17 hours, the rats were sacrificed under ether anesthesia and the stomach was removed. The stomach was treated with formalin and the ulcer index as well as ED50 were determined in the same manner as described in Experiment 1.

Where a name gives a salt, the structure may show the parent alone.

A word on the ED50: it is the dose that gives a 50% effect, or the effect in half of the subjects. What is called LD50 is the dose expected to kill half of the subjects tested. High values mean a less toxic substance, low ones a more toxic substance. Take `NC[C@H]1CC[C@H](C(=O)Oc2ccc(CCC(=O)O)cc2)CC1` [Reference compound, Cetraxate hydrochloride, reference compound]: the values for the ED50 in data set [1], in data set [3] and in data set [4] were 112 mg/kg, 361 mg/kg and more than 1000 mg/kg, respectively. The same compound registered an LD50 at 168 h in data set [2] of more than 8000 mg/kg.

Regarding `COc1ccc(OC(=O)CN2CCN(Cc3ccc(OC)c(OC)c3OC)CC2)cc1.Cl.Cl` [Compound 1, 1-[(4-Methoxyphenoxy)carbonylmethyl]-4-(2,3,4-trimethoxybenzyl)piperazine dihydrochloride], the ED50 in data set [1] came to 27 mg/kg; in data set [3], 10 mg/kg; in data set [4], 88 mg/kg. In addition, in data set [2], the LD50 at 168 h amounted to 4200 mg/kg.

On to `COc1ccc(OC(=O)CN2CCN(Cc3cc(OC)c(OC)c(OC)c3)CC2)cc1.O.O=C(O)/C=C/C(=O)O.O=C(O)/C=C/C(=O)O` [Compound 2, 1-[(4-Methoxyphenoxy)carbonylmethyl]-4-(3,4,5-trimethoxybenzyl)piperazine difumarate monohydrate], for which the values for the ED50 in data set [1], in data set [3] and in data set [4] were 30 mg/kg, 11 mg/kg and 123 mg/kg, respectively. In addition, the LD50 at 168 h in data set [2] amounted to 4800 mg/kg.
